Test results from patent publication US20260256792A1, “TREATMENT OF CHRONIC SPONTANEOUS URTICARIA BY ADMINISTERING (R)-2-[3-[4-AMINO-3-(2-FLUORO-4-PHENOXY-PHENYL)PYRAZOLO[3,4-D]PYRIMIDIN-1-YL]PIPERIDINE-1-CARBONYL]-4-METHYL-4-[4-(OXETAN-3-YL)PIPERAZIN-1-YL]PENT-2-ENENITRILE” (priority 2023, published 2026).

Test system: moderate-to-severe chronic spontaneous urticaria (CSU)
Assay: Phase 2 CSU study: itch severity score over 7 days (ISS7)
Type: in vivo, human
Excerpt: The study comprises a 12 week, randomized, double-blind, placebo-controlled, multi-center, dose-ranging efficacy and safety phase, followed by a 40 week open label extension (OLE) phase (see FIG. 1). The study consists of three phases and an optional OLE phase. […] Clinically, CSU is characterized by the spontaneous and recurrent appearance of pruritic hives. The proposed primary endpoints were the UAS7 at Week 12 in EU and EU reference countries and the ISS7 in the US. Regardless of where a participant was from, all assessments were the same. The UAS7 score is a composite score containing both the HSS7 and the ISS7. This allowed a global assessment of the two key components of urticaria: hives and itch. […] The UAS is a validated PRO measure. […] The daily UAS scores range from 0 to 6 point/day. […] Patients were to complete the UAS using the e-diary. […] The following secondary endpoints were to be analyzed using the same approach as for the primary endpoint: • Change from baseline in UAS7 at Week 4 • Change from baseline in UAS7 at Week 12 (for US and US reference countries) • Change from baseline in ISS7 at Week 12 (except US and US reference countries) • Change from baseline in HSS7 at Week 12

[1] = Week 7, 400 mg TID, Omalizumab-Naïve
[2] = Week 7, 400 mg TID, Prior Omalizumab Use
[3] = Week 8, 400 mg BID, Omalizumab-Naïve
[4] = Week 8, 400 mg BID, Prior Omalizumab Use
[5] = Week 8, 400 mg QPM, Omalizumab-Naïve
[6] = Week 8, 400 mg QPM, Prior Omalizumab Use
[7] = Week 8, 400 mg TID, Omalizumab-Naïve
[8] = Week 8, 400 mg TID, Prior Omalizumab Use
[9] = Week 9, 400 mg BID, Omalizumab-Naïve
[10] = Week 9, 400 mg BID, Prior Omalizumab Use
[11] = Week 9, 400 mg QPM, Omalizumab-Naïve
[12] = Week 9, 400 mg QPM, Prior Omalizumab Use
[13] = Week 9, 400 mg TID, Omalizumab-Naïve
[14] = Week 9, 400 mg TID, Prior Omalizumab Use
[15] = Week 10, 400 mg BID, Omalizumab-Naïve
[16] = Week 10, 400 mg BID, Prior Omalizumab Use

Structure (SMILES): CC(C)(C=C(C#N)C(=O)N1CCC[C@@H](n2nc(-c3ccc(Oc4ccccc4)cc3F)c3c(N)ncnc32)C1)N1CCN(C2COC2)CC1 [rilzabrutinib, (R)-2-[3-[4-amino-3-(2-fluoro-4-phenoxy-phenyl)pyrazolo[3,4-d]pyrimidin-1-yl]piperidine-1-carbonyl]-4-methyl-4-[4-(oxetan-3-yl)piperazin-1-yl]pent-2-enenitrile]
- ISS7 Change from baseline Mean (SD) [1]: −8.96 (5.57)
- ISS7 Change from baseline Median [1]: −9.00
- ISS7 Mean (SD) [1]: 7.14 (5.35)
- ISS7 Median [1]: 8.00
- ISS7 Percent change from baseline Mean (SD) [1]: −55.24 (31.64) %
- ISS7 Percent change from baseline Median [1]: −52.66%
- ISS7 Change from baseline Mean (SD) [2]: −9.94 (7.89)
- ISS7 Change from baseline Median [2]: −7.33
- ISS7 Mean (SD) [2]: 7.06 (6.25)
- ISS7 Median [2]: 6.00
- ISS7 Percent change from baseline Mean (SD) [2]: −54.94 (32.91) %
- ISS7 Percent change from baseline Median [2]: −48.16%
- ISS7 Change from baseline Mean (SD) [3]: −8.15 (6.15)
- ISS7 Change from baseline Median [3]: −9.00
- ISS7 Mean (SD) [3]: 7.33 (6.55)
- ISS7 Median [3]: 6.00
- ISS7 Percent change from baseline Mean (SD) [3]: −53.11 (38.61) %
- ISS7 Percent change from baseline Median [3]: −60.00%
- ISS7 Change from baseline Mean (SD) [4]: −11.00 (9.49)
- ISS7 Change from baseline Median [4]: −14.00
- ISS7 Mean (SD) [4]: 6.20 (8.32)
- ISS7 Median [4]: 1.00
- ISS7 Percent change from baseline Mean (SD) [4]: −61.52 (49.97) %
- ISS7 Percent change from baseline Median [4]: −93.33%
- ISS7 Change from baseline Mean (SD) [5]: −6.03 (4.99)
- ISS7 Change from baseline Median [5]: −6.00
- ISS7 Mean (SD) [5]: 10.72 (5.26)
- ISS7 Percent change from baseline Mean (SD) [5]: −36.14 (28.79) %
- ISS7 Percent change from baseline Median [5]: −33.68%
- ISS7 Change from baseline Mean (SD) [6]: −14.00 (NC)
- ISS7 Change from baseline Median [6]: −14.00
- ISS7 Mean (SD) [6]: 7.00 (NC)
- ISS7 Median [6]: 7.00
- ISS7 Change from baseline Mean (SD) [7]: −9.01 (5.43)
- ISS7 Change from baseline Median [7]: −9.33
- ISS7 Mean (SD) [7]: 7.24 (5.51)
- ISS7 Median [7]: 7.00
- ISS7 Percent change from baseline Mean (SD) [7]: −55.59 (31.84) %
- ISS7 Percent change from baseline Median [7]: −53.49%
- ISS7 Change from baseline Mean (SD) [8]: −12.67 (6.71)
- ISS7 Change from baseline Median [8]: −14.00
- ISS7 Mean (SD) [8]: 4.33 (6.83)
- ISS7 Median [8]: 1.50
- ISS7 Percent change from baseline Mean (SD) [8]: −77.10 (31.49) %
- ISS7 Percent change from baseline Median [8]: −86.61%
- ISS7 Change from baseline Mean (SD) [9]: −7.57 (6.14)
- ISS7 Change from baseline Median [9]: −8.00
- ISS7 Mean (SD) [9]: 7.63 (7.11)
- ISS7 Median [9]: 7.00
- ISS7 Percent change from baseline Mean (SD) [9]: −51.57 (40.77) %
- ISS7 Percent change from baseline Median [9]: −53.33%
- ISS7 Change from baseline Mean (SD) [10]: −10.83 (9.53)
- ISS7 Change from baseline Median [10]: −15.00
- ISS7 Mean (SD) [10]: 6.37 (8.47)
- ISS7 Median [10]: 1.00
- ISS7 Percent change from baseline Mean (SD) [10]: −60.71 (51.74) %
- ISS7 Percent change from baseline Median [10]: −95.24%
- ISS7 Change from baseline Mean (SD) [11]: −6.39 (5.27)
- ISS7 Change from baseline Median [11]: −5.42
- ISS7 Percent change from baseline Mean (SD) [11]: −37.00 (28.06) %
- ISS7 Percent change from baseline Median [11]: −33.33%
- ISS7 Change from baseline Mean (SD) [12]: 11.00 (NC)
- ISS7 Change from baseline Median [12]: −11.00
- ISS7 Mean (SD) [12]: 10.00 (NC)
- ISS7 Percent change from baseline Mean (SD) [12]: −52.38 (NC) %
- ISS7 Percent change from baseline Median [12]: −52.38%
- ISS7 Change from baseline Mean (SD) [13]: −9.70 (5.57)
- ISS7 Change from baseline Median [13]: −10.00
- ISS7 Mean (SD) [13]: 6.68 (5.31)
- ISS7 Median [13]: 7.00
- ISS7 Percent change from baseline Mean (SD) [13]: −58.56 (30.66) %
- ISS7 Percent change from baseline Median [13]: −65.00%
- ISS7 Change from baseline Mean (SD) [14]: −12.36 (6.72)
- ISS7 Change from baseline Median [14]: −13.92
- ISS7 Mean (SD) [14]: 4.64 (6.72)
- ISS7 Median [14]: 2.00
- ISS7 Percent change from baseline Mean (SD) [14]: −74.49 (30.89) %
- ISS7 Percent change from baseline Median [14]: −83.01%
- ISS7 Change from baseline Mean (SD) [15]: −7.07 (6.58)
- ISS7 Change from baseline Median [15]: −7.58
- ISS7 Mean (SD) [15]: 8.17 (7.29)
- ISS7 Median [15]: 7.00
- ISS7 Percent change from baseline Mean (SD) [15]: −47.10 (43.27) %
- ISS7 Percent change from baseline Median [15]: −48.10%
- ISS7 Change from baseline Mean (SD) [16]: −9.80 (9.55)
- ISS7 Change from baseline Median [16]: −11.00
- ISS7 Mean (SD) [16]: 7.40 (8.11)
- ISS7 Median [16]: 4.00
- ISS7 Percent change from baseline Mean (SD) [16]: −53.71 (50.05) %
- ISS7 Percent change from baseline Median [16]: −73.33%
- ISS7 Change from baseline Mean (SD) (Week 10, 400 mg QPM, Omalizumab-Naïve): −6.43 (5.26)
